#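 Cultured in 96-well plates, cells were exposed to test compound for 48 hours across five concentrations. TGI marks complete inhibition of growth.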
# Columns and labels:
# Assay in all cases: DTP human tumour cell line panel, 48 h
# [1] = system: MOLT-4 leukemia
# [2] = system: A498 renal
# [3] = system: BT-549 breast
# [4] = system: COLO 205 colon
# [5] = system: SF-295 CNS
# [6] = system: OVCAR-8 ovarian
# [7] = system: HCT-15 colon
# [8] = system: 786-0 renal
# [9] = system: SNB-19 CNS
# [10] = system: IGROV1 ovarian
# [11] = system: SW-620 colon
# [12] = system: HOP-62 NSCLC
# [13] = system: SF-268 CNS
# [14] = system: MDA-N
# [15] = system: UO-31 renal
# [16] = system: HL-60(TB) leukemia
# [17] = system: DU-145 prostate
# [18] = system: OVCAR-5 ovarian
# [19] = system: MDA-MB-435
# [20] = system: U251 CNS
# [21] = system: M14 melanoma
# [22] = system: NCI-H226 lung
# [23] = system: LOX IMVI melanoma
# [24] = system: K-562 leukemia
# [25] = system: SK-MEL-2 melanoma
# [26] = system: UACC-62 melanoma
# [27] = system: UACC-257 melanoma
# [28] = system: OVCAR-3 ovarian
# [29] = system: HCT-116 colon
# [30] = system: NCI-H522 lung
# [31] = system: SK-MEL-5 melanoma
# [32] = system: CAKI-1 renal
# [33] = system: MALME-3M melanoma
# [34] = system: NCI-H460 lung
# [35] = system: KM12 colon
# [36] = system: MDA-MB-231 breast
# [37] = system: CCRF-CEM leukemia
# [38] = system: TK-10 renal
# [39] = system: ACHN renal
# [40] = system: NCI-H23 lung
# [41] = system: SN12C renal
# [42] = system: HT29 colon
# [43] = system: RXF 393 renal
# [44] = system: MCF7 breast
# [45] = system: NCI/ADR-RES ovarian
# [46] = system: PC-3 prostate
# [47] = system: EKVX NSCLC
# [48] = system: SK-MEL-28 melanoma
# [49] = system: OVCAR-4 ovarian
# [50] = system: HS 578T breast
# [51] = system: T-47D breast
# [52] = system: A549 NSCLC
# [53] = system: RPMI-8226 leukemia
# [54] = system: SK-OV-3 ovarian
# [55] = system: HOP-92 NSCLC
# [56] = system: SF-539 CNS
# [57] = system: SNB-75 CNS
# [58] = system: SR leukemia
# [59] = system: HCC-2998 colon
compound,measurement,setting,value
Cc1ccc2c(=O)c(-c3nnc(NC4CCCCC4)s3)c[nH]c2n1,TGI,[1],> 100 µM
same,TGI,[2],> 100 µM
same,TGI,[3],> 100 µM
same,TGI,[4],> 100 µM
same,TGI,[5],> 100 µM
same,TGI,[6],> 100 µM
same,TGI,[7],> 100 µM
same,TGI,[8],> 100 µM
same,TGI,[9],> 100 µM
same,TGI,[10],> 100 µM
same,TGI,[11],> 100 µM
same,TGI,[12],> 100 µM
same,TGI,[13],> 100 µM
same,TGI,[14],> 100 µM
same,TGI,[15],> 100 µM
same,TGI,[16],> 100 µM
same,TGI,[17],> 100 µM
same,TGI,[18],> 100 µM
same,TGI,[19],> 100 µM
same,TGI,[20],> 100 µM
same,TGI,[21],> 100 µM
same,TGI,[22],> 100 µM
same,TGI,[23],> 100 µM
same,TGI,[24],> 100 µM
same,TGI,[25],> 100 µM
same,TGI,[26],> 100 µM
same,TGI,[27],> 100 µM
same,TGI,[28],> 100 µM
same,TGI,[29],> 100 µM
same,TGI,[30],> 100 µM
same,TGI,[31],> 100 µM
same,TGI,[32],> 100 µM
same,TGI,[33],> 100 µM
same,TGI,[34],> 100 µM
same,TGI,[35],> 100 µM
same,TGI,[36],> 100 µM
same,TGI,[37],> 100 µM
same,TGI,[38],> 100 µM
same,TGI,[39],> 100 µM
same,TGI,[40],> 100 µM
same,TGI,[41],> 100 µM
same,TGI,[42],> 100 µM
same,TGI,[43],> 100 µM
same,TGI,[44],> 100 µM
same,TGI,[45],> 100 µM
same,TGI,[46],> 100 µM
same,TGI,[47],> 100 µM
same,TGI,[48],> 100 µM
same,TGI,[49],> 100 µM
same,TGI,[50],> 100 µM
same,TGI,[51],> 100 µM
same,TGI,[52],> 100 µM
same,TGI,[53],> 100 µM
CCOC(=O)[C@@H]1ON2O[C@@H](OC3CCCCC3c3ccccc3)C[C@H]3OC(=O)[C@@H]1C32 (stereo partly drawn),TGI,[1],> 100 µM
same,TGI,[2],> 100 µM
same,TGI,[4],> 100 µM
same,TGI,[5],> 100 µM
same,TGI,[6],> 100 µM
same,TGI,[7],> 100 µM
same,TGI,[8],> 100 µM
same,TGI,[10],> 100 µM
same,TGI,[11],> 100 µM
same,TGI,[54],> 100 µM
same,TGI,[12],> 100 µM
same,TGI,[13],> 100 µM
same,TGI,[55],> 100 µM
same,TGI,[14],> 100 µM
same,TGI,[15],> 100 µM
same,TGI,[17],> 100 µM
same,TGI,[56],> 100 µM
same,TGI,[18],> 100 µM
same,TGI,[19],> 100 µM
same,TGI,[20],> 100 µM
same,TGI,[21],> 100 µM
same,TGI,[22],> 100 µM
same,TGI,[23],> 100 µM
same,TGI,[24],> 100 µM
same,TGI,[26],> 100 µM
same,TGI,[27],> 100 µM
same,TGI,[28],> 100 µM
same,TGI,[57],> 100 µM
same,TGI,[29],> 100 µM
same,TGI,[30],> 100 µM
same,TGI,[31],> 100 µM
same,TGI,[32],> 100 µM
same,TGI,[34],> 100 µM
same,TGI,[35],> 100 µM
same,TGI,[36],> 100 µM
same,TGI,[37],21.9 µM
same,TGI,[38],> 100 µM
same,TGI,[39],> 100 µM
same,TGI,[40],> 100 µM
same,TGI,[41],> 100 µM
same,TGI,[58],> 100 µM
same,TGI,[42],> 100 µM
same,TGI,[43],> 100 µM
same,TGI,[44],> 100 µM
same,TGI,[45],> 100 µM
same,TGI,[59],> 100 µM
same,TGI,[47],> 100 µM
same,TGI,[50],> 100 µM
same,TGI,[51],> 100 µM
same,TGI,[52],> 100 µM
same,TGI,[53],> 100 µM
N#C/C(=C\c1ccc([N+](=O)[O-])o1)c1n[nH]c(Cc2ccccc2)n1,TGI,[1],> 100 µM
same,TGI,[2],14.6 µM
same,TGI,[3],8.46 µM
same,TGI,[4],2.74 µM
same,TGI,[5],20.1 µM
same,TGI,[6],> 25.1 µM
same,TGI,[8],3.85 µM
same,TGI,[9],17.3 µM
same,TGI,[10],3.11 µM
same,TGI,[11],> 100 µM
same,TGI,[54],16.5 µM
same,TGI,[12],5.92 µM
same,TGI,[13],2.91 µM
same,TGI,[55],5.85 µM
same,TGI,[14],4.52 µM
same,TGI,[15],9.74 µM
same,TGI,[16],6.83 µM
same,TGI,[17],3 µM
same,TGI,[56],5.78 µM
same,TGI,[18],3.5 µM
same,TGI,[19],6.92 µM
same,TGI,[20],10.7 µM
same,TGI,[21],3.92 µM
same,TGI,[22],6.04 µM
same,TGI,[23],3.85 µM
same,TGI,[24],> 22.3 µM
same,TGI,[25],4.34 µM
same,TGI,[26],3.55 µM
same,TGI,[27],4.26 µM
same,TGI,[28],3.01 µM
same,TGI,[57],6.75 µM
same,TGI,[29],0.668 µM
same,TGI,[30],1.57 µM
same,TGI,[31],2.51 µM
same,TGI,[32],3.96 µM
same,TGI,[33],4.4 µM
same,TGI,[34],12.2 µM
same,TGI,[35],6.69 µM
same,TGI,[36],5 µM
same,TGI,[37],1.81 µM
same,TGI,[38],4.15 µM
same,TGI,[39],4.11 µM
same,TGI,[40],2.89 µM
same,TGI,[41],4.03 µM
same,TGI,[42],2.83 µM
same,TGI,[43],2.76 µM
same,TGI,[44],7.05 µM
same,TGI,[45],12.8 µM
same,TGI,[46],7.43 µM
same,TGI,[59],3.12 µM
same,TGI,[47],8.31 µM
same,TGI,[48],4.09 µM
same,TGI,[49],3.55 µM
same,TGI,[50],21 µM
same,TGI,[51],4.2 µM
same,TGI,[52],15 µM
same,TGI,[53],1.4 µM
CN(C(=S)Cc1ccc(Cl)c(Cl)c1)C1CCCC[C@@H]1N1CCCC1 (stereo partly drawn),TGI,[1],> 100 µM
same,TGI,[2],60.6 µM
same,TGI,[3],> 100 µM
same,TGI,[5],36.2 µM
same,TGI,[7],> 100 µM
same,TGI,[8],55 µM
same,TGI,[9],> 100 µM
same,TGI,[11],48.4 µM
same,TGI,[54],> 100 µM
same,TGI,[12],> 100 µM
same,TGI,[14],36.2 µM
same,TGI,[15],48.8 µM
same,TGI,[16],> 100 µM
same,TGI,[17],> 100 µM
same,TGI,[56],> 100 µM
same,TGI,[18],> 100 µM
same,TGI,[19],87.5 µM
same,TGI,[20],> 100 µM
same,TGI,[21],37.2 µM
same,TGI,[22],> 100 µM
same,TGI,[24],> 100 µM
same,TGI,[25],> 100 µM
same,TGI,[26],34.1 µM
same,TGI,[28],> 100 µM
same,TGI,[29],> 100 µM
same,TGI,[31],33 µM
same,TGI,[32],> 100 µM
same,TGI,[35],> 100 µM
same,TGI,[36],> 100 µM
same,TGI,[38],89.2 µM
same,TGI,[39],> 100 µM
same,TGI,[40],> 100 µM
same,TGI,[41],> 100 µM
same,TGI,[42],45.5 µM
same,TGI,[45],> 100 µM
same,TGI,[46],> 100 µM
same,TGI,[47],> 100 µM
same,TGI,[48],31.6 µM
same,TGI,[49],> 100 µM
same,TGI,[51],> 100 µM
same,TGI,[52],> 100 µM
same,TGI,[53],> 100 µM

# Reference: PubChem BioAssay (NCI)
